Reference: US20210368850A1, “VAPORIZABLE FORMULATION” (NICOVENTURES TRADING LIMITED, priority 2018, published 2021)

Columns and labels:
[1] = Thermogravimetric analysis (TGA) of mass loss on heating; type: physicochemical; settings: 30° C. to 600° C. at 5° C./min; for Tpeak of mass loss (° C.) Air (rep 1) / Tpeak of mass loss (° C.) Air (rep 2): TGA in air; for Tpeak of mass loss (° C.) Nitrogen (rep 1) / Tpeak of mass loss (° C.) Nitrogen (rep 2): TGA in nitrogen
Procedure: Prior to panel testing, the cooling agents were subjected to thermogravimetric analysis (TGA) to understand their behavior as they are heated. As is known in the art, TGA is an analytical method which can monitor the mass loss of a sample as it is heated to temperatures of up to 1000° C. and higher.
All measurements were carried out on a Perkin Elmer STA6000 TGA thermogravimetric analyzer. For solid samples, a spatula was used to transfer 5-20 mg of material into the crucible of the analyzer. Oils were introduced to the instrument by transferring 5-20 mg using a Pasteur pipette onto a small portion of Cambridge filter pad which was placed in the crucible. All samples were heated from 30° C. to 600° C. at a constant rate of 5° C./min. This was carried out for each compound twice in air and twice in nitrogen. For a small number of samples, the run was stopped at 500-600° C. when full mass loss had been observed. For comparative purposes, menthol was also analyzed.
The onset temperature of mass loss for each compound was determined by visual inspection of the TGA traces on the computer software and the results are summarized in Table 2.

volunteers [2] = assay: Example 1 observational testing: perceived cooling intensity, Vype eTank Pro e-cigarette; type: in vivo; settings: 10 volunteers
Procedure: 10 volunteers were asked to use each cooling agent sample in a Vype eTank Pro (an electronic cigarette device). All cooling agents were used at a concentration of 0.18% except for menthol which in one sample was used at the current commercial concentration of 1.235%. Each of the menthol samples were tested for comparative purposes.
(§1) Each volunteer was asked to assess the cooling intensity on an objective basis (i.e. not considering personal preference) and a subjective basis. The objective assessment required the volunteer to rate the overall perceived cooling intensity from 0 to 10, where 0 was no cooling perceivable and 10 was very strong cooling sensation, and to place the cooling sensation, e.g. in the mouth, throat etc. The subjective assessment required the cooling intensity to be ranked as (1) much too low, (2) slightly too low, (3) just right, (4) slightly too high or (5) much too high.

[3] = from the literature, cited from earlier work; for Boiling point (° C.) @ 760 mmHg unless stated: @ 760 mmHg (atmospheric pressure), approximate
[4] = cited from earlier work; for Vapor pressure (mmHg) @ 25° C.: approximate, from the literature
volunteers [5] = assay: Example 2: cooling intensity of WS-3 e-liquid samples, eTank Pro e-cigarette; type: in vivo; settings: minimum of 4 volunteers, scale 0-10
Text: A minimum of 4 volunteers were asked to test each of the following e-liquid samples in an eTank Pro (an electronic cigarette device): • WS-3 at 2.5 wt % in glycerol/propylene glycol; • WS-3 at 5 wt % in glycerol/propylene glycol; and • WS-3 at 10 wt % in glycerol/propylene glycol.
as §1, with “basis in the same manner as Example 1.” for “basis.”

[6] = 0.18% in e-liquid, 0 = no cooling perceivable, 10 = very strong cooling sensation

In the case of `CC1CCC(C(C)C)C(O)C1` (stereo not shown) [Menthol, menthol, reference compound], the “Tpeak of mass loss (° C.) Air (rep 1)” value [1] is reported as 53 °C, the “Tpeak of mass loss (° C.) Air (rep 2)” value [1] is reported as 55 °C and the “Tpeak of mass loss (° C.) Nitrogen (rep 1)” value [1] is reported as 52 °C. For the same molecule, the “Tpeak of mass loss (° C.) Nitrogen (rep 2)” value [1] was 55 °C, the “Average Cooling Intensity (0-10)” value (volunteers [2]; [6]) was 2.1 and the “Average Cooling Intensity (0-10)” value (volunteers [2]; 1.235% (current commercial concentration) in e-liquid, scale 0-10) was 8. The “Boiling point (° C.) @ 760 mmHg unless stated” value [3] was 212 °C and the Vapor pressure ([4]; 25° C.) was “approximately 1.02 Pa”.
For `CC(C)[C@@H]1CC[C@@H](C)CC12OCC(CO)O2` (single isomer, unassigned; (-)) [Frescolat ® MGA, (−)-menthone 1,2-glycerol ketal], the “Tpeak of mass loss (° C.) Air (rep 1)” value [1] was 93 °C, the “Tpeak of mass loss (° C.) Air (rep 2)” value [1] was 85 °C and the “Tpeak of mass loss (° C.) Nitrogen (rep 1)” value [1] was 102 °C. For the same molecule, the “Tpeak of mass loss (° C.) Nitrogen (rep 2)” value [1] was 94 °C, the “Average Cooling Intensity (0-10)” value (volunteers [2]; [6]) was 1 and the “Boiling point (° C.) @ 760 mmHg unless stated” value [3] was 138-142 °C. For the same molecule, the “Vapor pressure (mmHg) @ 25° C.” value [4] was 2.15E−5 mmHg.
With `CCNC(=O)[C@H]1C[C@@H](C)CC[C@@H]1C(C)C` (stereo in doubt) [WS-3, (1S,2R,5S)-N-ethyl-5-methyl-2-(propan-2-yl)cyclohexanecarboxamide] the “Tpeak of mass loss (° C.) Air (rep 1)” value [1] was 127 °C, the “Tpeak of mass loss (° C.) Air (rep 2)” value [1] was 132 °C and the “Tpeak of mass loss (° C.) Nitrogen (rep 1)” value [1] was 132 °C. The “Tpeak of mass loss (° C.) Nitrogen (rep 2)” value [1] was 128 °C, the “Average Cooling Intensity (0-10)” value (volunteers [2]; [6]) was 3.045 and the “Average Cooling Intensity (0-10)” value (volunteers [5]; 2.5 wt % in glycerol/propylene glycol) was 6. For the same molecule, the “Average Cooling Intensity (0-10)” value (volunteers [5]; 5 wt % in glycerol/propylene glycol) was 8.5, the “Average Cooling Intensity (0-10)” value (volunteers [5]; 10 wt % in glycerol/propylene glycol) was 9.8 and the “Boiling point (° C.) @ 760 mmHg unless stated” value [3] was 340.55 °C. For the same molecule, the “Vapor pressure (mmHg) @ 25° C.” value [4] was 8.50E−5 mmHg.
With `COc1ccc(NC(=O)[C@@H]2C[C@H](C)CC[C@H]2C(C)C)cc1` [WS-12] the “Tpeak of mass loss (° C.) Air (rep 1)” value [1] was 202 °C, the “Tpeak of mass loss (° C.) Air (rep 2)” value [1] was 203 °C and the “Tpeak of mass loss (° C.) Nitrogen (rep 1)” value [1] was 199 °C. For the same molecule, the “Tpeak of mass loss (° C.) Nitrogen (rep 2)” value [1] was 197 °C, the “Boiling point (° C.) @ 760 mmHg unless stated” value [3] was 447.8 ± 28.0 °C and the “Vapor pressure (mmHg) @ 25° C.” value [4] was 3.25E−8 mmHg.
With `CNC(=O)C(C)(C(C)C)C(C)C` [WS-23, N,2,3-trimethyl-2-propan-2-ylbutanamide] the “Tpeak of mass loss (° C.) Air (rep 1)” value [1] was 88 °C, the “Tpeak of mass loss (° C.) Air (rep 2)” value [1] was 88 °C and the “Tpeak of mass loss (° C.) Nitrogen (rep 1)” value [1] was 90 °C. The “Tpeak of mass loss (° C.) Nitrogen (rep 2)” value [1] was 86 °C, the “Average Cooling Intensity (0-10)” value (volunteers [2]; [6]) was 2.1818 and the “Boiling point (° C.) @ 760 mmHg unless stated” value [3] was 233.00-234.00 °C.
For `CC(C)[C@@H]1CC[C@@H](C)C[C@H]1OCC(O)CO` (stereo partly drawn) [Coolact ® 10, 3-((−)-menthoxy)propane-1,2-diol], the “Tpeak of mass loss (° C.) Air (rep 1)” value [1] was 119 °C, the “Tpeak of mass loss (° C.) Air (rep 2)” value [1] was 112 °C and the “Tpeak of mass loss (° C.) Nitrogen (rep 1)” value [1] was 115 °C. The “Tpeak of mass loss (° C.) Nitrogen (rep 2)” value [1] was 119 °C, the “Average Cooling Intensity (0-10)” value (volunteers [2]; [6]) was 0.75 and the “Boiling point (° C.) @ 760 mmHg unless stated” value [3] was 362.8 ± 22.0 °C. For the same molecule, the “Vapor pressure (mmHg) @ 25° C.” value [4] was 9.88E−7 mmHg.
With `CCOC(=O)CNC(=O)[C@@H]1C[C@H](C)CC[C@H]1C(C)C` [WS-5, ethyl-2-[[(1R,2S,5R)-5-methyl-2-propan-2-ylcyclohexanecarbonyl]amino] acetate] the “Tpeak of mass loss (° C.) Air (rep 1)” value [1] was 149 °C, the “Tpeak of mass loss (° C.) Air (rep 2)” value [1] was 151 °C and the “Tpeak of mass loss (° C.) Nitrogen (rep 1)” value [1] was 154 °C. The “Tpeak of mass loss (° C.) Nitrogen (rep 2)” value [1] was 158 °C, the “Average Cooling Intensity (0-10)” value (volunteers [2]; [6]) was 2.5454 and the “Boiling point (° C.)” value ([3]; @ 2.00 mmHg) was 151.00 (@ 2.00 mmHg) ° C.
For `CC(C)[C@@H]1CC[C@@H](C)C[C@H]1C(=O)NCCc1ccccn1` [Evercool ® 190, (1R,2S,5R)-N-(2-(pyridin-2-yl)ethyl)menthylcarboxamide], the “Tpeak of mass loss (° C.) Air (rep 1)” value [1] was 161 °C, the “Tpeak of mass loss (° C.) Air (rep 2)” value [1] was 164 °C and the “Tpeak of mass loss (° C.) Nitrogen (rep 1)” value [1] was 169 °C. The “Tpeak of mass loss (° C.) Nitrogen (rep 2)” value [1] was 174 °C, the “Average Cooling Intensity (0-10)” value (volunteers [2]; [6]) was 7.1 and the “Boiling point (° C.) @ 760 mmHg unless stated” value [3] was 461.6 ± 24.0 °C. The “Vapor pressure (mmHg) @ 25° C.” value [4] was 1.06E−8 mmHg.
For `CC(O)C(=O)O[C@@H]1C[C@H](C)CC[C@H]1C(C)C` (stereo partly drawn) [Frescolat ® ML, (−)-menthyl lactate], the “Tpeak of mass loss (° C.) Air (rep 1)” value [1] was 86 °C, the “Tpeak of mass loss (° C.) Air (rep 2)” value [1] was 88 °C and the “Tpeak of mass loss (° C.) Nitrogen (rep 1)” value [1] was 86 °C. The “Tpeak of mass loss (° C.) Nitrogen (rep 2)” value [1] was 91 °C, the “Average Cooling Intensity (0-10)” value (volunteers [2]; [6]) was 2 and the “Boiling point (° C.) @ 760 mmHg unless stated” value [3] was 304.0 ± 15.0 °C. The “Vapor pressure (mmHg) @ 25° C.” value [4] was 8.58E−5 mmHg.
With `CC(C)[C@@H]1CC[C@@H](C)C[C@H]1OC(=O)CCC(=O)O` [Monomenthyl succinate, (−)-menthyl succinate] the “Tpeak of mass loss (° C.) Air (rep 1)” value [1] was 144 °C, the “Tpeak of mass loss (° C.) Air (rep 2)” value [1] was 148 °C and the “Tpeak of mass loss (° C.) Nitrogen (rep 1)” value [1] was 151 °C. The “Tpeak of mass loss (° C.) Nitrogen (rep 2)” value [1] was 151 °C, the “Boiling point (° C.) @ 760 mmHg unless stated” value [3] was 374.35 °C and the “Vapor pressure (mmHg) @ 25° C.” value [4] was 1.23E−6 mmHg.
